Results taken from patent US20200147058A1, “KRAS INHIBITOR FOR USE IN TREATING CANCER” (Friedrich-Alexander-Universitat Erlangen-Numberg, priority 2016, published 2020).

Columns and labels:
Mel Im cells [1] = assay: long-term treatment, emergence of surviving tumor cells and drug resistance; assay type: cell-based, human; details: 28 days, IC50 or 2×IC50
Excerpt: FIGS. 4A through 4H depict that small Molecule KRAS Inhibition Reduces Proliferation and Induces Apoptosis in Melanoma. FIGS. 4A and 4B show proliferation (slope of cell index) of Mel Juso (FIG. 4A) and Mel Im (FIG. 4B) cells treated with DMSO and different concentrations of the KRAS small molecule inhibitor Deltarasin (DR). The cell index as dimensionless parameter for cell proliferative ability was used to determine the half maximal inhibitory concentration (IC50, small graphs) of DR. […] FIG. 4D illustrates exemplary images of different melanoma cell lines (Mel Im, Mel Juso and Mel Ei) treated with 5 μM DR or 5 μM DMSO, respectively, for 24 hours. FIGS. 4E and 4F show images of fibroblast cell lines derived from two different donors (F1, F2) and melanocytes (NHEM) treated DR (20 μM, 48 hours) or DMSO (FIG. 4E), and lactate dehydrogenase (LDH) quantification (FIG. 4F) in cell supernatants (optic density, OD) of NHEM after treatment with low dose DMSO, DR (5 μM), and DR (10 μM), respectively.
FIGS. 6A through 6H depict that KRASi Prevents Emergence of Resistance and KRAS Expression is Regulated Dynamically in Acquired Resistance to BRAFi. […] Asterisks indicate significant differences (p<0.05) as compared to according control (0 μM PLX). […] Densitometric values (DM) are also shown, representing relative quantifications. […]

PLC = details: DR doses
HepG2 hepatoma cells = assay: Annexin V / PI staining with FACS analysis of apoptosis; assay type: cell-based, human; details: 8 μM
[2] = test system: resistant cell clones (SkMel28-R, 451Lu-R); assay: real-time cell proliferation of BRAFi-resistant melanoma cells; assay type: cell-based, human; details: in combination with 5 or 10 μM PLX
Protocol: FIGS. 6A through 6H depict that KRASi Prevents Emergence of Resistance and KRAS Expression is Regulated Dynamically in Acquired Resistance to BRAFi. […] Asterisks indicate significant differences (p<0.05) as compared to according control (0 μM PLX). FIGS. 6E and 6F are exemplary Western blot images (FIG. 6E) depicting immunostaining of AKT, pAKT, ERK, pERK, and KRAS. Densitometric values (DM) are also shown, representing relative quantifications. Resistant cell lines 451Lu-R and SkMel28-R were treated with 0, 5, or 10 μM PLX for 8 hours, and according summarized quantification of KRAS protein expression (n=3, FIG. 6F).
FIGS. 7A through 7I present KRAS Inhibition Re-sensitizes BRAF Inhibitor Resistant Cells for Inhibition of Proliferation and Induction of Apoptosis. […] show real-time cell proliferation (exemplary proliferation curve depicted in FIG. 6A, summarized slopes of proliferation curves depicted in FIG. 6B) of PLX-resistant cells treated with si-KRAS (KR) or control si-RNA (CTR), respectively, in combination with 5 or 10 μM PLX. FIGS. 7C and 7D show real-time cell proliferation (exemplary proliferation curve depicted in […], summarized slopes of proliferation curves depicted in FIG. 7D) of PLX-resistant cells treated with Deltarasin (DR) or DMSO, respectively, in combination with 5 or 10 μM PLX, according to FIGS. 7A and 7B. […]

[3] = test system: murine hepatoma cell line Hepa129; assay: viable cells counted by microscopy; assay type: cell-based; details: 24 hours
Protocol: FIGS. 12A through 12C depict Murine Hepatoma Cells (Hepta129) Sensitive for Small Molecule KRAS Inhibition in vitro and in vivo. […] is exemplary images (4-fold) depicting murine Hepatoma Cells (Hepa129) treated for 24 hours with Deltarasin (DR) and/or Sorafenib (SF) using different concentration of inhibitors.

HCC cells = assay: anchorage-dependent tumor cell growth; assay type: cell-based, human; details: low doses (6 μM)
Hep3B = assay: real-time cell proliferation assay; assay type: cell-based, human; details: DR doses
Htz19 melanoma cells [4] = assay: FACS analysis of apoptosis; assay type: cell-based, human; details: 5 hours, 5 μM DR
Htz19 melanoma cells [5] = assay: three-dimensional colony formation assay; assay type: cell-based, human; details: Htz19 (BRAFi primary sensitive); DR 5 μM, PLX 10 μM, alone or combined
[6] = test system: pancreatic adenocarcinoma cells; details: Zimmermann et al., 2013; cited from earlier work
Mel Im cells [7] = assay: three-dimensional, anchorage-independent colony-forming assay; assay type: cell-based, human; details: Mel Im (BRAFi primary sensitive); DR 5 μM, PLX 10 μM, alone or combined
HCC tumor cells = assay: tumor cell toxicity in HCC; assay type: cell-based, human; details: higher doses of DR (>8 μM)

For `c1ccc(Cn2c(-c3ccc(OC[C@H](C4CCNCC4)n4c(-c5ccccc5)nc5ccccc54)cc3)nc3ccccc32)cc1` [Deltarasin, (S)-1-Benzyl-2-(4-(2-(2-phenyl-1H-benzo[d]imidazol-1-yl)-2-(piperidin-4-yl)ethoxy)phenyl)-1H-benzo[d]imidazole], the “surviving tumor cells after long-term treatment” value (Mel Im cells [1]) was “no surviving tumor cells were detected”, the inhibition of proliferation (PLC) was “strong dose-dependent inhibition of proliferation” and the “induction of apoptosis (FACS)” value (HepG2 hepatoma cells) was “marked dose-dependent induction of apoptosis”. The “proliferation of PLX-treated, BRAFi-resistant melanoma cells” value [2] was “dose dependent inhibition of proliferation”, the “tumor cell proliferation (viable cells)” value [3] was “marked effects” and the “anchorage-dependent tumor cell growth” value (HCC cells) was “suppressed”. For the same molecule, the inhibition of proliferation (Hep3B) was “strong dose-dependent inhibition of proliferation”, the “apoptosis (FACS), short treatment” value (Htz19 melanoma cells [4]) was “only slightly induced apoptosis” and the “three-dimensional colony formation and proliferation of pre-formed colonies” value (Htz19 melanoma cells [5]) was “similarly effective as PLX”. The “proliferation of pancreatic adenocarcinoma cells” value [6] was “reduce proliferation”, the “three-dimensional colony formation and proliferation of pre-formed colonies” value (Mel Im cells [7]) was “similarly effective as PLX” and the tumor cell toxicity (HCC tumor cells) was “marked tumor cell toxicity”.
